Tests used:
[1] = biological target: T1, Muscarinic acetylcholine receptor M1 (Homo sapiens, UniProt P11229); test: Positive allosteric modulation at muscarinic acetylcholine receptor M1(unknown origin)
T1 sequence (P11229 whole entry): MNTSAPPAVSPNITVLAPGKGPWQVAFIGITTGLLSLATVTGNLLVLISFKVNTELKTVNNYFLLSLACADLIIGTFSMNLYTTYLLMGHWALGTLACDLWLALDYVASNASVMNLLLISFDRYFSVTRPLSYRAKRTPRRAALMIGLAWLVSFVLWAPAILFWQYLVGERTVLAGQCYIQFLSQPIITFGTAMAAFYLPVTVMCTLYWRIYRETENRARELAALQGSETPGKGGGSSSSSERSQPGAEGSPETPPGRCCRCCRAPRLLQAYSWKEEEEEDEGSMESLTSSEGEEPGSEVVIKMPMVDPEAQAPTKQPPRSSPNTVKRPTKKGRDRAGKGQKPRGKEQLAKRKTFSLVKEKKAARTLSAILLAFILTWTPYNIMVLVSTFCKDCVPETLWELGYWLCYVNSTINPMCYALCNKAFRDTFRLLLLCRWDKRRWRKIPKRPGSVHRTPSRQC

[2] = biological target: T2, Muscarinic acetylcholine receptor M1 (Homo sapiens) (UniProt P11229); test: Positive allosteric modulation at muscarinic acetylcholine receptor M1(unknown origin) relative to control
T2 sequence (whole entry): T1 sequence (P11229 whole entry)

## CN1CCC2(C1)C(=O)N(Cc1ccc(-c3cnn(C)c3)cc1F)c1ccccc12 (centres undefined)
[1]
  EC50: 3.8 µM
[2]
  Emax: 76%

## Cn1cc(-c2ccc(CN3C(=O)C4(OCCO4)c4ccccc43)c(F)c2)cn1
[1]
  EC50: 3.2 µM
[2]
  Emax: 86%

From ChEMBL document CHEMBL2429785, “Substituted Benzylspiroindolin-2-one Analogues as Positive Allosteric Modulators of the Muscarinic Acetylcholine Receptor M1” (ACS Med Chem Lett, 2013)
